What was measured:
[1] = target: T1, von Hippel-Lindau disease tumor suppressor/SWI/SNF-related matrix-associated actin-dependent regulator of chromatin subfamily A member 2 (Homo sapiens, UniProt P51531+P40337); assay: PROTAC activity at VHL/wild-type SMARCA2 in human NCI-H838 cells assessed as induction of SMARCA2 degradation incubated for 24 hrs by Western blotting analysis; assay type: cell-based
[2] = target: T2, von Hippel-Lindau disease tumor suppressor/SWI/SNF-related matrix-associated actin-dependent regulator of chromatin subfamily A member 4 (Homo sapiens, UniProt P51532+P40337); assay: In vivo PROTAC activity at VHL/SMARCA4 in SCID mouse xenografted with human MV4-11 cells assessed as remaining activity in tumor at 50 mg/kg, iv administered as single dose measured after 48 hrs by Western blotting analysis (reference value: 100 +/- 15 % ); assay type: ADME, organism-based
[3] = target: T1, von Hippel-Lindau disease tumor suppressor/SWI/SNF-related matrix-associated actin-dependent regulator of chromatin subfamily A member 2; assay: In vivo PROTAC activity at VHL/SMARCA2 in SCID mouse xenografted with human NCI-H838 cells assessed as reduction of SMARCA2 level in tumor at 50 mg/kg, iv administered as single dose measured after 96 hrs by Western blotting analysis; assay type: functional, organism-based; parameters: scale not given: the % may be the effect or the level left
Target sequence in this assay (P40337 whole entry, looked up): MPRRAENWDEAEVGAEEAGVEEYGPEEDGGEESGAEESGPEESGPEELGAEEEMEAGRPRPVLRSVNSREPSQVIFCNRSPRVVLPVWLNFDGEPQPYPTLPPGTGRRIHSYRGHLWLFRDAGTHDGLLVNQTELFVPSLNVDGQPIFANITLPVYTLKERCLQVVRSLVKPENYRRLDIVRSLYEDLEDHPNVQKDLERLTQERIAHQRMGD
Target sequence in this assay (P51531 whole entry, looked up): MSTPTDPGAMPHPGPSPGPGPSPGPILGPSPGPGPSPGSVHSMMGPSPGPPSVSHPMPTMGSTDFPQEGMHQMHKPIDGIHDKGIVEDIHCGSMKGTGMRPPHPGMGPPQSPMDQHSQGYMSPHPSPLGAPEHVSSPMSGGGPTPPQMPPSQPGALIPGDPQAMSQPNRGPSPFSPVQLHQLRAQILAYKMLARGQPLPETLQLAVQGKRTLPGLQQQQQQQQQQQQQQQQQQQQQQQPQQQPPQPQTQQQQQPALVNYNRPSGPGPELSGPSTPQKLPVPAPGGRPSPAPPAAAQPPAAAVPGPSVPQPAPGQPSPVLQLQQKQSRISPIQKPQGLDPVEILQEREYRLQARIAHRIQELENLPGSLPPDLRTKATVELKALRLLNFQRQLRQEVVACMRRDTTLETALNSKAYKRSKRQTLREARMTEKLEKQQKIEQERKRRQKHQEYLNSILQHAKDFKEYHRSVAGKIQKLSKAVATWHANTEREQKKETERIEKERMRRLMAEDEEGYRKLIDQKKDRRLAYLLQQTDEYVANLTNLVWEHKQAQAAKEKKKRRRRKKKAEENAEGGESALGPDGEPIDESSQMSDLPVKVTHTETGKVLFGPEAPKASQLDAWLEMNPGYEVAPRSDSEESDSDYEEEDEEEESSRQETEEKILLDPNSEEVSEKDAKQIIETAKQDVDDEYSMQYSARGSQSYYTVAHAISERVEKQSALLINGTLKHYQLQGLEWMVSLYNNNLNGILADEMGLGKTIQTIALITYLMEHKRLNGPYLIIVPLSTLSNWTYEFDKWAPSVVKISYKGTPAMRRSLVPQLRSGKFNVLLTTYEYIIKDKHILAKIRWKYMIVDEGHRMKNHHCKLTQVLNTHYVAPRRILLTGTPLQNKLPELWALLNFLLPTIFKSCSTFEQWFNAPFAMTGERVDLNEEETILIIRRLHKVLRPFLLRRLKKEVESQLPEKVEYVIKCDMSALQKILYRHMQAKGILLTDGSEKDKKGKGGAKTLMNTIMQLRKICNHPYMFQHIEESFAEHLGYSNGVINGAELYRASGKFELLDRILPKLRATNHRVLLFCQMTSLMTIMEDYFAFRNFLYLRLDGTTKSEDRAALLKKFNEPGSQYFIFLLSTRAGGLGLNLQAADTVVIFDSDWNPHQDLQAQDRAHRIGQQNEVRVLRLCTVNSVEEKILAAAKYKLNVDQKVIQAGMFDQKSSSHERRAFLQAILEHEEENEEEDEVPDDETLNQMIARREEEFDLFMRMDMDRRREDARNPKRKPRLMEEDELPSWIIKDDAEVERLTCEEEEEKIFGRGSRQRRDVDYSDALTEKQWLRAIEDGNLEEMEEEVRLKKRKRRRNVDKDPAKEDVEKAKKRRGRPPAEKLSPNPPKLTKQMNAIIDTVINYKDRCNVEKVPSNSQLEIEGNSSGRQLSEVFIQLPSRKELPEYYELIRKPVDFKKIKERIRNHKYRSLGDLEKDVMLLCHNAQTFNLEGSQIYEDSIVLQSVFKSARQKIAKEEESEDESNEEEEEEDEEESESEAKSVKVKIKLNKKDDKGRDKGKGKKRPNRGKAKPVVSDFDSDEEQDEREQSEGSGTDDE

[4] = target: T1, von Hippel-Lindau disease tumor suppressor/SWI/SNF-related matrix-associated actin-dependent regulator of chromatin subfamily A member 2; assay: PROTAC activity at VHL/C-terminal HiBiT fused SMARCA2 in human HeLa cells assessed as induction of SMARCA2 degradation at 0.0001 to 1 uM incubated for 6 hrs by Nano-Glo HiBiT analysis relative to control; assay type: cell-based; conditions: dose 0.0001-1 µM
Target sequence in this assay (P40337 whole entry, looked up): as the sequence (P40337 whole entry, looked up) above
Target sequence in this assay (P51531 whole entry, looked up): as the sequence (P51531 whole entry, looked up) above

[5] = target: T2, von Hippel-Lindau disease tumor suppressor/SWI/SNF-related matrix-associated actin-dependent regulator of chromatin subfamily A member 4; assay: PROTAC activity at VHL/C-terminal HiBiT fused SMARCA4 in human HeLa cells assessed as induction of SMARCA4 degradation incubated for 48 hrs by Nano-Glo HiBiT analysis; assay type: cell-based
[6] = target: T2, von Hippel-Lindau disease tumor suppressor/SWI/SNF-related matrix-associated actin-dependent regulator of chromatin subfamily A member 4; assay: PROTAC activity at VHL/wild-type SMARCA4 in human SK-MEL-28 cells assessed as induction of SMARCA4 degradation incubated for 24 hrs by Western blotting analysis; assay type: cell-based
[7] = target: T2, von Hippel-Lindau disease tumor suppressor/SWI/SNF-related matrix-associated actin-dependent regulator of chromatin subfamily A member 4; assay: In vivo PROTAC activity at VHL/SMARCA4 in SCID mouse xenografted with human MV4-11 cells assessed as reduction of SMARCA4 level in tumor at 50 mg/kg, iv administered as single dose measured after 2 hrs by Western blotting analysis; assay type: ADME, organism-based; parameters: scale not given: the % may be the effect or the level left
[8] = target: T2, von Hippel-Lindau disease tumor suppressor/SWI/SNF-related matrix-associated actin-dependent regulator of chromatin subfamily A member 4; assay: PROTAC activity at VHL/C-terminal HiBiT fused SMARCA4 in human HeLa cells assessed as induction of SMARCA4 degradation by measuring maximal efficacy incubated for 24 hrs by Nano-Glo HiBiT analysis relative to control; assay type: cell-based
Target sequence in this assay (P40337 whole entry, looked up): as the sequence (P40337 whole entry, looked up) above
Target sequence in this assay (P51532 whole entry, looked up): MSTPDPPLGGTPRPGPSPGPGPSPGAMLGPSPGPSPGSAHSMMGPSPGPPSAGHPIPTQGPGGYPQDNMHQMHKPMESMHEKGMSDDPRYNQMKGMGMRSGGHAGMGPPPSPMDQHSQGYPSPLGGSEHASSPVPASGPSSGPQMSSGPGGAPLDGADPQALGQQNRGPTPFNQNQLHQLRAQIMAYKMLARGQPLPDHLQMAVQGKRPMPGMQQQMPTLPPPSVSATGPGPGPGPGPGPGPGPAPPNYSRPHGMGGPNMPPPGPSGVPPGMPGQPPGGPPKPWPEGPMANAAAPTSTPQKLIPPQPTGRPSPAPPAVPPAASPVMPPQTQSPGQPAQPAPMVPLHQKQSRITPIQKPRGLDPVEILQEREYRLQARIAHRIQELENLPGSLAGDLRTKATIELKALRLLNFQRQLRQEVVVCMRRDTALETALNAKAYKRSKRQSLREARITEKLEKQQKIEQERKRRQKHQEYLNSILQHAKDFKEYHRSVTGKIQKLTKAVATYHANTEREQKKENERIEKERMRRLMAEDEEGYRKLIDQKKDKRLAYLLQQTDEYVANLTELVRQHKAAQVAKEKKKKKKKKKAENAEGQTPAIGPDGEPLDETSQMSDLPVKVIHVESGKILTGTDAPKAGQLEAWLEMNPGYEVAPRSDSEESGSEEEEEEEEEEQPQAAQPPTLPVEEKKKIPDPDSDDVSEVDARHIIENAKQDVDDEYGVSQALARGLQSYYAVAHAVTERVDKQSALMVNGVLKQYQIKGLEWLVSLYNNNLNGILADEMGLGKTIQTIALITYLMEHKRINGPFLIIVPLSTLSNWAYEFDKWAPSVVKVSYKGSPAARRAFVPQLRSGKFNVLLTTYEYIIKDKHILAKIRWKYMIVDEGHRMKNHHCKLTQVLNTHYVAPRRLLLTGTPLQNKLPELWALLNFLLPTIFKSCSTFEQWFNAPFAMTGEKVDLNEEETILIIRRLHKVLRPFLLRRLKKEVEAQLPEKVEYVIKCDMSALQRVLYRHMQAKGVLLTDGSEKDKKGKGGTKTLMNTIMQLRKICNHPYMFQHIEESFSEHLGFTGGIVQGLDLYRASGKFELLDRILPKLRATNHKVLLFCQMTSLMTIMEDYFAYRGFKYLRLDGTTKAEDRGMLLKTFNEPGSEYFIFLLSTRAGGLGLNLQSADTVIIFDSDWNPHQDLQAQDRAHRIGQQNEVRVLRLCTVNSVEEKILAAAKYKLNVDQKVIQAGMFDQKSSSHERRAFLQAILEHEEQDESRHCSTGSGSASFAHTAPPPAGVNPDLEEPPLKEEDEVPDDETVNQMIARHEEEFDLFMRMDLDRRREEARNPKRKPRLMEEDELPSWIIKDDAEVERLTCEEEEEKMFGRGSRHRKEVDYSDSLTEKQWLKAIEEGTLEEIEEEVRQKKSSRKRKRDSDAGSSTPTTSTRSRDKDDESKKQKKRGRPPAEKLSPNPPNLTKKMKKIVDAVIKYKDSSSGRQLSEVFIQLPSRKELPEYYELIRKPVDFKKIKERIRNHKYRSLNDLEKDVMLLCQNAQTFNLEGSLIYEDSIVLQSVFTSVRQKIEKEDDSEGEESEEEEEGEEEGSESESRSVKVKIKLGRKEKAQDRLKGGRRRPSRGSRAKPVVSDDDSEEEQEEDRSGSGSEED

NCI-H647 = assay: Antiproliferative activity against human NCI-H647 cells expressing wild-type SMARCA2 assessed as cell growth inhibition measured after 7 days by WST-8 assay; assay type: functional; conditions: NCI-H647, 168 h, time 7 day
[9] = target: T1, von Hippel-Lindau disease tumor suppressor/SWI/SNF-related matrix-associated actin-dependent regulator of chromatin subfamily A member 2; assay: PROTAC activity at VHL/C-terminal HiBiT fused SMARCA2 in human HeLa cells assessed as induction of SMARCA2 degradation at 0.0001 to 1 uM incubated for 1 hr by Nano-Glo HiBiT analysis relative to control; assay type: cell-based; conditions: dose 0.0001-1 µM
Target sequence in this assay (P40337 whole entry, looked up): as the sequence (P40337 whole entry, looked up) above
Target sequence in this assay (P51531 whole entry, looked up): as the sequence (P51531 whole entry, looked up) above

NCI-H838 = assay: Antitumor activity against SMARCA4-deficient human NCI-H838 cells xenografted in SCID mouse assessed as tumor growth inhibition at 50 mg/kg, iv administered twice a week measured after 3 weeks relative to control; assay type: functional; conditions: NCI-H838, 504 h, read-out: TGI
[10] = Drug concentration in SCID mouse tumor xenografted with human MV4-11 cells at 50 mg/kg, iv measured after 24 hrs by LC-MS/MS method; assay type: ADME, organism-based, Neoplasm; conditions: read-out: Ct
[11] = Drug concentration in SCID mouse plasma xenografted with human MV4-11 cells at 50 mg/kg, iv measured after 6 hrs by LC-MS/MS method; assay type: ADME, organism-based
[12] = target: T1, von Hippel-Lindau disease tumor suppressor/SWI/SNF-related matrix-associated actin-dependent regulator of chromatin subfamily A member 2; assay: PROTAC activity at VHL/wild-type SMARCA2 in human SK-MEL-28 cells assessed as induction of SMARCA2 degradation at 0.001 to 1000 nM incubated for 24 hrs by Western blotting analysis relative to control; assay type: cell-based; conditions: dose 0.001-1000 nM
Target sequence in this assay (P40337 whole entry, looked up): as the sequence (P40337 whole entry, looked up) above
Target sequence in this assay (P51531 whole entry, looked up): as the sequence (P51531 whole entry, looked up) above

NCI-H1944 = assay: Antiproliferative activity against SMARCA4-deficient human NCI-H1944 cells assessed as cell growth inhibition by measuring maximal efficacy measured after 7 days by WST-8 assay relative to control; assay type: functional; conditions: time 7 day
NCI-H1975 = assay: Antiproliferative activity against human NCI-H1975 cells expressing wild-type SMARCA2 assessed as cell growth inhibition measured after 7 days by WST-8 assay; assay type: functional; conditions: NCI-H1975, 168 h, time 7 day
[13] = Antiproliferative activity against SMARCA4-deficient human NCI-H1568 cells assessed as cell growth inhibition by measuring maximal efficacy measured after 7 days by WST-8 assay relative to control; assay type: functional; conditions: time 7 day
SK-MEL-5 = assay: Antitumor activity against SMARCA4-deficient human SK-MEL-5 cells xenografted in SCID mouse assessed as tumor growth inhibition at 25 mg/kg, iv administered twice a week measured after 32 days relative to control; assay type: functional; conditions: SK-MEL-5, 768 h, time 32 day, read-out: TGI
[14] = target: T1, von Hippel-Lindau disease tumor suppressor/SWI/SNF-related matrix-associated actin-dependent regulator of chromatin subfamily A member 2; assay: PROTAC activity at VHL/C-terminal HiBiT fused SMARCA2 in human HeLa cells assessed as induction of SMARCA2 degradation by measuring maximal efficacy at 0.0001 to 1 uM incubated for 24 hrs by Nano-Glo HiBiT analysis relative to control; assay type: cell-based; conditions: dose 0.0001-1 µM
Target sequence in this assay (P40337 whole entry, looked up): as the sequence (P40337 whole entry, looked up) above
Target sequence in this assay (P51531 whole entry, looked up): as the sequence (P51531 whole entry, looked up) above

[15] = target: T2, von Hippel-Lindau disease tumor suppressor/SWI/SNF-related matrix-associated actin-dependent regulator of chromatin subfamily A member 4; assay: PROTAC activity at VHL/C-terminal HiBiT fused SMARCA4 in human HeLa cells assessed as induction of SMARCA4 degradation by measuring maximal efficacy at 0.001 to 10 uM incubated for 6 hrs by Nano-Glo HiBiT analysis relative to control; assay type: cell-based; conditions: dose 0.001-10 µM
Target sequence in this assay (P40337 whole entry, looked up): as the sequence (P40337 whole entry, looked up) above
Target sequence in this assay (P51532 whole entry, looked up): as the sequence (P51532 whole entry, looked up) above

[16] = target: T1, von Hippel-Lindau disease tumor suppressor/SWI/SNF-related matrix-associated actin-dependent regulator of chromatin subfamily A member 2; assay: In vivo PROTAC activity at VHL/SMARCA2 in SCID mouse xenografted with human MV4-11 cells assessed as remaining activity in tumor at 50 mg/kg, iv administered as single dose measured after 6 hrs by Western blotting analysis (reference value: 100 +/- 15 % ); assay type: ADME, organism-based
[17] = target: T2, von Hippel-Lindau disease tumor suppressor/SWI/SNF-related matrix-associated actin-dependent regulator of chromatin subfamily A member 4; assay: PROTAC activity at VHL/wild-type SMARCA4 in human SK-MEL-28 cells assessed as induction of SMARCA4 degradation at 0.001 to 1000 nM incubated for 24 hrs by Western blotting analysis relative to control; assay type: cell-based; conditions: dose 0.001-1000 nM
Target sequence in this assay (P40337 whole entry, looked up): as the sequence (P40337 whole entry, looked up) above
Target sequence in this assay (P51532 whole entry, looked up): as the sequence (P51532 whole entry, looked up) above

[18] = target: T2, von Hippel-Lindau disease tumor suppressor/SWI/SNF-related matrix-associated actin-dependent regulator of chromatin subfamily A member 4; assay: In vivo PROTAC activity at VHL/SMARCA4 in SCID mouse xenografted with human MV4-11 cells assessed as reduction of SMARCA4 level in tumor at 50 mg/kg, iv administered as single dose measured after 48 hrs by Western blotting analysis; assay type: ADME, organism-based; parameters: scale not given: the % may be the effect or the level left
[19] = target: T2, von Hippel-Lindau disease tumor suppressor/SWI/SNF-related matrix-associated actin-dependent regulator of chromatin subfamily A member 4; assay: In vivo PROTAC activity at VHL/SMARCA4 in SCID mouse xenografted with human MV4-11 cells assessed as remaining activity in tumor at 50 mg/kg, iv administered as single dose measured after 6 hrs by Western blotting analysis (reference value: 100 +/- 15 % ); assay type: ADME, organism-based
[20] = target: T1, von Hippel-Lindau disease tumor suppressor/SWI/SNF-related matrix-associated actin-dependent regulator of chromatin subfamily A member 2; assay: In vivo PROTAC activity at VHL/SMARCA2 in SCID mouse xenografted with human MV4-11 cells assessed as remaining activity in tumor at 50 mg/kg, iv administered as single dose measured after 48 hrs by Western blotting analysis (reference value: 100 +/- 15 % ); assay type: ADME, organism-based

Cc1ncsc1-c1ccc([C@H](C)NC(=O)[C@@H]2C[C@@H](O)CN2C(=O)[C@@H](NC(=O)[C@H]2CC[C@H](CN3CC4(CCC(n5cc(-c6cc(-c7ccccc7O)nnc6N)cn5)CC4)C3)CC2)C(C)(C)C)cc1
DC50 [1]: 63 nM
Activity [2]: 87%
Activity [3]: 67%
Emax [4]: 80%
DC50 [5]: 174 nM
DC50 [6]: > 1000 nM
Activity [7]: 7%
Emax [8]: 44%
GI50 (NCI-H647): 3100 nM
Emax [9]: 66%
inhibition in vivo at 50 mg/kg (NCI-H838): 81%
concentration at 24 h [10]: 2960 ng/g
concentration at 6 h [11]: 766 ng/mL
Emax [12]: 98%
Imax (NCI-H1944): 88%
GI50 (NCI-H1975): > 10000 nM
Imax [13]: 79%
inhibition in vivo at 25 mg/kg (SK-MEL-5): 54%
Emax [14]: 90%
Emax [15]: 49%
Activity [16]: 30%
Emax [17]: 24%
Activity [18]: 13%
Activity [19]: 83%
Activity [20]: 17%

Source: ChEMBL document CHEMBL5325488, “Discovery of SMD-3040 as a Potent and Selective SMARCA2 PROTAC Degrader with Strong in vivo Antitumor Activity” (J Med Chem, 2023)
